# From PMC8277899, “A novel RyR1-selective inhibitor prevents and rescues sudden death in mouse models of malignant hyperthermia and heat stroke” (Nature Communications, 2021)
# Values joined by “and” are separate entries in the source; they are usually repeats but may differ in a detail not shown here. Equal entries are not always repeated. Where two headings read alike, the source gives them in different places.
# What was measured:
# [1] = tested on: FDB muscle cells from WT mice; test: Ca2+ imaging (Cal520, fura-2) of isolated single FDB cells from WT mice; assay type: cell-based, mouse
# Description: WT and mutant mice (R2509C, 8- to 20-week old; R163C, 12- to 16-week old, and G2435R, 12- to 16-week old) were euthanized and flexor digitorum brevis (FDB) muscles were dissected and incubated with 2 mg/mL collagenase (Worthington Biochemical Co., NJ, USA) in the HEPES-Krebs solution containing 2 mg/mL bovine serum albumin for 2–3 h at 37 °C. Following incubation, single cells were separated by gentle trituration in collagenase-free HEPES-Krebs solution. Isolated single FDB cells were seeded on a laminin-coated cover slip of the 35 mm glass-bottom dish or on 96 well plate coated with Cultrex basement membrane matrix (Trevigen, Minneapolis, USA).
# Isolated single FDB cells were incubated with 4 µM Cal520-AM (AAT Bioquest, CA, USA) or fura-2-AM (Thermo Fisher Scientific) dye in the HEPES-Krebs solution (140 mM NaCl, 5 mM KCl, 2 mM CaCl2, 1 mM MgCl2, 11 mM glucose, 5 mM HEPES, pH 7.4) for 30 min at 37 °C. The cells were then washed three times with the HEPES-Krebs solution to remove excess dye, and after 30 min of de-esterification, fluorescence images were obtained with a 20X (NA = 0.75) objective lens of an inverted microscope (Nikon TE2000-E Japan) equipped with the sCMOS camera (Zyla, Andor, Belfast, Northern Ireland) using Metamorph v7 (Molecular Devices). Cal520 was excited at 480 ± 15 nm, and fluorescence was measured at wavelengths of 525 ± 25 nm. […]
# [2] = tested on: R2509C mice; assay type: in vivo, mouse
# [3] = Pharmacokinetics after i.p. administration in mice; assay type: in vivo, mouse; set-up: Cpd1 concentration (sheet Fig S5a) / Cpd1 concentration (sheet Fig S5b): unit not given here; details: for concentration at 10 min / concentration at 30 min / concentration at 60 min / Cmax / half-life / concentration at 5 min: C57BL/6J, mouse, plasma; for concentration at 10 min / concentration at 30 min / concentration at 60 min / concentration at 5 min: intraperitoneal; for Cmax / half-life: ip; for Cpd1 concentration (sheet Fig S5b) / Cpd1 concentration (sheet Fig S5a): i.p., single mice
# Description: Cpd1 sodium salt (3 mg/kg and 10 mg/kg) dissolved in normal saline was administered i.p. to WT C57BL/6 J mice (10 week-old). Serial tail bled blood samples (∼20 μL) were collected using heparinized tip at 5, 10, 30, and 60 min after administration. Aliquots (5 μL) of plasma samples obtained from each blood were treated with 50 μL of acetonitrile and organic layer were injected onto LC–MS/MS system (Waters Corp., Milford, MA, USA). The pharmacokinetic parameters included maximum concentration (Cmax), elimination half-life (T½).
# [4] = Metabolic stability in mouse liver microsomes; assay type: in vitro ADME; details: 0.5 μM, NADPH
# Description: (§1) Cpd1 (final concentration was 0.5 μM) was incubated with human or mouse hepatic microsomes (XenoTech Ltd, Kansas City, KS) with nicotinamide adenine dinucleotide phosphate (NADPH) for 10 and 60 min at 37 °C. Each reaction was stopped by acetonitrile, and the value of unchanged compound 1 was determined by quantitating using LC–MS/MS, and the metabolic stability was evaluated as a remaining rate (%).
# [5] = Metabolic stability in human liver microsomes; assay type: in vitro ADME; details: 0.5 μM, NADPH
# Description: as §1
# [6] = tested on: WT mice; test: Muscle force in vivo, grip force test (4-grips test), WT mice; set-up: species or system mouse; details: for grip force (sheet Fig S6b): single mice; for grip force normalized by body weight: 8-times injection of 1 mg/kg at 10 min intervals, 1 mg/kg
# [7] = preventive, 10 mg/kg 10 min before heat stress
smiles,measurement,setting,value
"CCCCCCCCn1cc(C(=O)O)c(=O)c2cc3c(cc21)OCO3 [Cpd1, 6,7-(methylenedioxy)-1-octyl-4-quinolone-3-carboxylic acid]",effect on resting [Ca2+]i (fura-2),"[1]; WT cells, 0.1 and 0.3 µM",no significant effect
same,Ca2+ signal with Cpd1 relative to None = 1 (sheet Fig S1b),"[1]; WT, single experiments",0.9888 and 0.981 and 0.9775 and 0.9827 and 0.9913
same,effect on rise in rectal temperature,"[2]; 1 mg/kg i.p. 8 times at 10 min intervals, heat stress",successfully prevented rise in the rectal temperature
same,Survival 90 min after heat stress challenge (survivors/total),[2]; 1 mg/kg i.p. 8 times every 10 min,all the mice survived
same,preventive effect in heat stress experiments,"[2]; 3 mg/kg, preliminary experiments",no effect
same,effect on rate of temperature rise,"[2]; preventive, 10 mg/kg",slowed the rate of temperature rise
same,Survival 120 min after heat stress challenge (survivors/total),[2]; [7],0 out of 4 and 0/4
same,Time to death from start of heat stress challenge,[2]; [7],115.67 min and 109.33 min and 83.5 min and 85 min
same,Survival 60 min after administration (survivors/total),"[2]; rescue, 3 mg/kg i.p. at 38 °C",5/6
same,Survival 60 min after administration (survivors/total),"[2]; rescue, 3 mg/kg i.p. at 39 °C, 3 mg/kg",3/5 and 3 out of 5
same,Survival 60 min after administration (survivors/total),"[2]; rescue, 10 mg/kg i.p. at 38 °C",6/6
same,Survival 60 min after administration (survivors/total),"[2]; rescue, 10 mg/kg i.p. at 39 °C, 10 mg/kg",10/11 and 10 out of 11
same,effect on continued rise in body temperature,"[2]; rescue, 3 and 10 mg/kg i.p. at 38 °C",strongly suppressed
same,plasma concentration,"[3]; 3 mg/kg i.p., 10 min",750 ng/mL and 510 ng/mL and 710 ng/mL and 660 ng/mL and 760 ng/mL
same,plasma concentration,"[3]; 3 mg/kg i.p., 30 min",150 ng/mL and 120 ng/mL and 140 ng/mL and 190 ng/mL
same,plasma concentration,"[3]; 10 mg/kg i.p., 10 min",2950 ng/mL and 3200 ng/mL and 1730 ng/mL and 2280 ng/mL and 1660 ng/mL
same,plasma concentration,"[3]; 10 mg/kg i.p., 60 min",50 ng/mL and 60 ng/mL
same,concentration at 10 min,"[3]; 3 mg/kg, 3 mg/kg i.p., 10 min",440 ng/mL
same,concentration at 30 min,"[3]; 3 mg/kg, 3 mg/kg i.p., 30 min",110 ng/mL
same,concentration at 10 min,"[3]; 10 mg/kg, 10 mg/kg i.p., 10 min",3080 ng/mL
same,concentration at 60 min,"[3]; 10 mg/kg, 10 mg/kg i.p., 60 min",40 ng/mL
same,Cmax,[3]; 3 mg/kg i.p.,1500 ± 200 ng/mL
same,half-life,"[3]; 3 mg/kg i.p., read-out: t1/2",8.4 ± 1.4 min
same,Cmax,[3]; 10 mg/kg i.p.,5400 ± 600 ng/mL
same,half-life,"[3]; 10 mg/kg i.p., read-out: t1/2",8.6 ± 1.6 min
same,half-life,"[3]; both the 3 mg/kg and 10 mg/kg dose i.p., read-out: t1/2 (plasma half-life)",~8 min
same,Cmax,"[3]; female mice, 3 mg/kg i.p.",1600 ± 100 ng/mL
same,half-life,"[3]; female mice, 3 mg/kg i.p., read-out: t1/2",8.6 ± 0.8 min
same,Cmax,"[3]; female mice, 10 mg/kg i.p.",6000 ± 400 ng/mL
same,half-life,"[3]; female mice, 10 mg/kg i.p., read-out: t1/2",9.3 ± 1 min
same,Cmax,"[3]; female, 8-times injection of 1 mg/kg at 10 min intervals",150 ± 110 ng/mL
same,half-life,"[3]; female, 8-times injection of 1 mg/kg at 10 min intervals, read-out: t1/2",14.8 ± 2.1 min
same,Cmax,"[3]; male mice, 3 mg/kg i.p.",1300 ± 400 ng/mL
same,half-life,"[3]; male mice, 3 mg/kg i.p., read-out: t1/2",8.3 ± 2.7 min
same,Cmax,"[3]; male mice, 10 mg/kg i.p.",5100 ± 1200 ng/mL
same,half-life,"[3]; male mice, 10 mg/kg i.p., read-out: t1/2",7.4 ± 2.5 min
same,Cmax,"[3]; male, 8-times injection of 1 mg/kg at 10 min intervals",670 ± 110 ng/mL
same,half-life,"[3]; male, 8-times injection of 1 mg/kg at 10 min intervals, read-out: t1/2",9.6 ± 2.7 min
same,plasma concentration,"[3]; female, 8-times injection of 1 mg/kg at 10 min intervals, 5 min, 1 mg/kg",110 ng/mL and 120 ng/mL
same,plasma concentration,"[3]; female, 8-times injection of 1 mg/kg at 10 min intervals, 30 min, 1 mg/kg",30 ng/mL
same,plasma concentration,"[3]; female, 8-times injection of 1 mg/kg at 10 min intervals, 60 min, 1 mg/kg",20 ng/mL
same,concentration at 5 min,"[3]; female, 1 mg/kg, 8-times injection of 1 mg/kg at 10 min intervals, 5 min",140 ng/mL
same,concentration at 10 min,"[3]; female, 1 mg/kg, 8-times injection of 1 mg/kg at 10 min intervals, 10 min",120 ng/mL
same,concentration at 30 min,"[3]; female, 1 mg/kg, 8-times injection of 1 mg/kg at 10 min intervals, 30 min",40 ng/mL
same,concentration at 60 min,"[3]; female, 1 mg/kg, 8-times injection of 1 mg/kg at 10 min intervals, 60 min",10 ng/mL
same,plasma concentration,"[3]; male, 8-times injection of 1 mg/kg at 10 min intervals, 60 min, 1 mg/kg",20 ng/mL
same,concentration at 5 min,"[3]; male, 1 mg/kg, 8-times injection of 1 mg/kg at 10 min intervals, 5 min",430 ng/mL
same,concentration at 60 min,"[3]; male, 1 mg/kg, 8-times injection of 1 mg/kg at 10 min intervals, 60 min",10 ng/mL
same,Cpd1 concentration (sheet Fig S5b),"[3]; time 5, dose head 3",1.2 and 1.12 and 0.98
same,Cpd1 concentration (sheet Fig S5b),"[3]; time 5, dose head 10",4.45 and 3.8 and 3.72
same,Cpd1 concentration (sheet Fig S5a),"[3]; time 10, dose head 3",0.44 and 0.75 and 0.51
same,Cpd1 concentration (sheet Fig S5b),"[3]; time 10, dose head 3",0.71 and 0.66 and 0.76
same,Cpd1 concentration (sheet Fig S5a),"[3]; time 10, dose head 10",1.73 and 2.28 and 1.66
same,Cpd1 concentration (sheet Fig S5b),"[3]; time 10, dose head 10",3.08 and 2.95 and 3.2
same,Cpd1 concentration (sheet Fig S5a),"[3]; time 30, dose head 3",0.11 and 0.15 and 0.12
same,Cpd1 concentration (sheet Fig S5b),"[3]; time 30, dose head 3",0.14 and 0.19
same,Cpd1 concentration (sheet Fig S5b),"[3]; time 30, dose head 10",0.39 and 0.45 and 0.41
same,Cpd1 concentration (sheet Fig S5b),"[3]; time 60, dose head 3",0.03 and 0.02
same,Cpd1 concentration (sheet Fig S5a),"[3]; time 60, dose head 10",0.05 and 0.06 and 0.04
same,Cpd1 concentration (sheet Fig S5b),"[3]; time 60, dose head 10",0.04 and 0.05 and 0.06
same,"remaining rate (residual Cpd1, 0 min = 100%)",[4]; 10 min,23% and 26% and 28% and 19% and 18%
same,"remaining rate (residual Cpd1, 0 min = 100%)",[4]; 60 min,3% and 2% and 4%
same,"remaining rate (residual Cpd1, 0 min = 100%)",[5]; 10 min,69% and 68% and 65% and 66%
same,"remaining rate (residual Cpd1, 0 min = 100%)",[5]; 60 min,25% and 26% and 23%
same,grip force (sheet Fig S6b),[6]; 10 min after Cpd1,10.7 and 8.11 and 9.35 and 11.39
same,grip force (sheet Fig S6b),[6]; 60 min after Cpd1,11.25 and 11.53 and 12.05 and 13.94
same,grip force (sheet Fig S6b),"[6]; Pre (before administration), Cpd1 group",12.3 and 12.63 and 13.75 and 13.44
same,reduction of muscle strength,"[6]; WT mice, 10 min after 10 mg/kg",15%
same,recovery of muscle strength deficit,"[6]; WT mice, 60 min after 10 mg/kg",almost completely recovered
same,grip force normalized by body weight,"[6]; female WT, 10 min",6.55 g/g BW and 8.77 g/g BW and 8.32 g/g BW
same,grip force normalized by body weight,"[6]; female WT, 30 min",6.59 g/g BW and 8.18 g/g BW and 9 g/g BW
same,grip force normalized by body weight,"[6]; female WT, 60 min",8.64 g/g BW and 8.82 g/g BW and 9.45 g/g BW
same,grip force normalized by body weight,"[6]; female WT, 120 min",10.05 g/g BW and 9.64 g/g BW and 12.23 g/g BW
same,grip force normalized by body weight,"[6]; female WT, Pre",9.86 g/g BW and 10.18 g/g BW and 11.36 g/g BW
same,grip force normalized by body weight,"[6]; male WT, 10 min",6.56 g/g BW and 4.67 g/g BW and 5.04 g/g BW
same,grip force normalized by body weight,"[6]; male WT, 30 min",7.19 g/g BW and 7.63 g/g BW and 7.37 g/g BW
same,grip force normalized by body weight,"[6]; male WT, 60 min",8.81 g/g BW and 9.89 g/g BW and 10.81 g/g BW
same,grip force normalized by body weight,"[6]; male WT, 120 min",9.48 g/g BW and 8.74 g/g BW and 9.44 g/g BW
same,grip force normalized by body weight,"[6]; male WT, Pre",9.33 g/g BW and 9.22 g/g BW and 8.63 g/g BW
